According to US6495737B1, “Methods and compositions for improving salicylic acid-independent systemic acquired disease resistance in plants” (Rutgers, The State University of New Jersey, priority 1996, dated 2002):
“Also recorded” adds a separate entry of the source.

Legend:
PAL genes = assay: Northern analysis of PAL gene expression in tobacco leaves injected with chemicals; format: in vivo, Nicotiana tabacum cv. Xanthi nc; details: 1 mM injected into leaf
Procedure: (§1) One leaf on each plant was injected with water, 1 mM of SA, INA or 4-hydroxybenzoic acid (4HBA). At the times indicated, injected leaves from two similarly treated plants (˜5 g tissue) were harvested and total RNA was extracted. Ten μg of RNA was loaded in each lane. The experiment with all ten probes was done twice.
(§2) SA and its analog 4-hydroxybenzoic acid were purchased from Sigma. INA was provided by Uwe Conrath and Heinrich Kauss at Universitat Kaiserslautern, Germany. All chemicals were dissolved in water and adjusted a pH of 6.5 with NaOH. They were injected into plants at a concentration of 1 mM. Control plants were injected with distilled water.
Infected leaves were harvested and frozen in liquid nitrogen and stored at −80° C. until RNA extraction. Total RNA was extracted by phenol/chloroform essentially as described by Berry et al. (1985) with some modifications on the extraction buffer (50 mM Tris.HCl, pH8.0, 20 mM EDTA, 100 mM NaCl, and 2% SDS). For RNA blots, 10 μg of total RNA was loaded in each lane. RNA was separated on 1.2% agarose gels containing 18% formaldehyde and transferred to a Nytran Plus membrane (Schleicher and Schuell, Inc., Keene, N.H.). RNA was fixed to the membrane by cross-linking with UV light and then baked at 80° C. for 2 h. […]

PR-1 genes = assay: Northern analysis of PR-1 gene expression in tobacco leaves injected with chemicals; format: in vivo, Nicotiana tabacum cv. Xanthi nc; details: for induction of PR-1 genes (in words): exogenous treatment of tobacco
Procedure: as §1, §2
(§3) Infected leaves were harvested and frozen in liquid nitrogen and stored at −80° C. until RNA extraction. Total RNA was extracted by phenol/chloroform essentially as described by Berry et al. (1985) with some modifications on the extraction buffer (50 mM Tris.HCl, pH8.0, 20 mM EDTA, 100 mM NaCl, and 2% SDS). For RNA blots, 10 μg of total RNA was loaded in each lane. RNA was separated on 1.2% agarose gels containing 18% formaldehyde and transferred to a Nytran Plus membrane (Schleicher and Schuell, Inc., Keene, N.H.). RNA was fixed to the membrane by cross-linking with UV light and then baked at 80° C. for 2 h. Prehybridization and hybridization were performed at 60° C. in 0.5M phosphate buffer (pH 7.2), containing 1% BSA, 7% SDS, and 1 mM EDTA (Church and Gilbert, 1984). The membranes were washed twice in 2×SSC at room temperature for 10 min each, twice in 2×SSC containing 0.5% SDS at 65° C. for 30 min, and twice in 0.1×SSC at room temperature for 30 min each. The probes were prepared from linearized DNA fragments and labeled with ^32p using the random-prime labeling method (Feinberg and Vogelstein, 1984). The PR-1a DNA clone was previously isolated in our lab and the tobacco PAL DNA clone was kindly provided by Michel Legrand and Bernard Fritig, Centre National de la Recherche Scientifique, Strasbourg, France.
(§4) 2,4-D, […], and its analog 4HBA were purchased from Sigma. IAA was purchased from GIBCO BRL. INA was provided by Uwe Conrath at Universitat Kaiserslautern, Germany. SA, 4HBA and INA were dissolved in water and adjusted to […] pH of 6.5. They were injected into plants at a concentration of 1 mM with a needle-less syringe. Control plants were injected with distilled water. IAA and 2,4-D was dissolved in 0.2% ethanol.
(§5) Total RNA was isolated from tobacco tissue by phenol/chloroform as described in Example 1. Ten micrograms of total RNA was analyzed by electrophoresis in a 1.2% agarose gel containing formaldehyde and blotted to Nytran Plus membranes (Schleicher and Schuell). […] Following autoradiography, mRNA levels were quantitated using a Phosphorimager (Molecular Dynamics).

[1] = system: seven groups of SIS genes (ACCO, ACCD, HMGR, APX, PR-3, SAR8.2, PAR-1); assay: Northern analysis of SIS gene expression in tobacco leaves injected with chemicals; format: in vivo, Nicotiana tabacum cv. Xanthi nc; details: 1 mM injected into leaf
Procedure: as §1
Tobacco (Nicotiana tabacum cv. Xanthi nc) plants and NahG-10 seeds, kindly provided by John Ryals at Novartis, Research Triangle, NC, were grown at 20° C. in a growth room with a 14-h day cycle. Two upper, fully expanded leaves of 6-8 week-old plants were infected with TMV strain U1 at a concentration of 1 μg/ml in 50 mM phosphate buffer (pH 7.2) containing carborundum. Control plants were treated with phosphate buffer and carborundum only. Inoculated plants were maintained in a 22° C. growth chamber until harvesting. In temperature shift experiments, plants were immediately put into a 32° C. growth chamber after infection with TMV. After a 48 h incubation period, the temperature was shifted from 32° C. to 22° C.
as §2, §3

[2] = system: auxin-inducible glutathione S-transferase gene, GNT35; assay: GNT35 gene expression in tobacco suspension cells treated with auxins (positive control); format: cell-based; details: 100 μM, hormone-free medium 2 days
Procedure: (§6) FIG. 12A: tobacco leaves were injected with water or 1 mM SA, INA or 4HBA. Samples were harvested at the times indicated and total RNA was extracted from treated tissue. Ten μg of RNA was loaded in each lane. FIG. 12B: quantification of EH-1 transcripts corresponding to the data from FIG. 12A. The method of quantification is described in FIG. 9. The experiments were done twice. FIG. 12C: cell cultures were subcultured for 2 days in hormone-free medium to deplete hormones. Water, 2,4-D or IAA were then added to the media at 100 μM. Cells were collected at the times indicated.
(§7) Cell suspension was treated with auxins as described by Xiang et al (1996). Cell cultures were grown in hormone-free medium for 2 days to deplete hormones in the medium. IAA (100 μM) and 2,4-D (100 μM) were added to the suspension. Cells were harvested at 0, 2, 6 and 12 h after addition of auxins. Water was added to the control.
(§8) Total RNA was isolated from tobacco tissue by phenol/chloroform as described in Example 1. Ten micrograms of total RNA was analyzed by electrophoresis in a 1.2% agarose gel containing formaldehyde and blotted to Nytran Plus membranes (Schleicher and Schuell). Blots were hybridized with [alpha-^32P]dCTP-labeled probes prepared by the random-priming method with a oligo labelling kit (Pharmacia). […] Following autoradiography, mRNA levels were quantitated using a Phosphorimager (Molecular Dynamics).

EH-1 gene [3] = assay: EH-1 gene expression in tobacco suspension cells treated with auxins; format: cell-based; details: 100 μM, hormone-free medium 2 days, 0-12 h
Procedure: as §6, §7, §8

Arabidopsis sEH gene = details: in vivo; cited from earlier work
potato suspension cells = details: cited from earlier work
fungal pathogen = details: cited from earlier work; for effectiveness at protecting / inducing resistance to fungal infection in barley: highly susceptible barley cultivar
EH-1 gene [4] = assay: EH-1 gene expression in tobacco leaves injected with chemicals; format: in vivo, Nicotiana tabacum; details: 1 mM injected into leaf
Procedure: as §6, §4, §5

With O=C(O)c1ccccc1O [SA, salicylic acid] the “induction of PAL gene expression (in words)” value (PAL genes) was “little, if any, induction of PAL; also recorded: neither SA nor INA can induce PAL gene expression”, the “time post treatment at which PR-1 mRNAs were first detected” value (PR-1 genes; 1 mM injected into leaf, Example 1) was 12 h and the “time post treatment at which PR-1 transcripts were first detected” value (PR-1 genes; 1 mM injected into leaf, Example 2) was 12 h. The “induction of PR-1 genes (in words)” value (PR-1 genes) was “slow and sustained”, the “activation of the seven groups of SIS genes (in words)” value (“activation” below) [1] was “induced their expression transiently; also recorded: rapid and transient activation of six of the seven groups” and the “time post treatment by which SIS mRNA levels had declined” value [1] was ≤ 24 h. For the same compound, the “time post treatment by which mRNA levels for all SIS genes had peaked” value [1] was ≤ 12 h, the “time after injection by which six of the seven groups of SIS genes were induced” value ([1]; Northern blot) was 4 to 6 h and the “time after treatment at which increased expression of PAR-1 was detected” value ([1]; this experiment) was 12 h.

For O=C(O)COc1ccc(Cl)cc1Cl [2,4-D, 2,4-dichlorophenoxy acetic acid], the “induction of GNT35 expression (in words)” value [2] is listed as “rapidly induced”, the “induction of EH-1 expression (in words)” value (EH-1 gene [3]) is listed as “Little or no induction” and the “induction of Arabidopsis sEH gene” value (Arabidopsis sEH gene) is listed as “induced by auxins”.

In the case of O=C(O)Cc1c[nH]c2ccccc12 [IAA, indole-3-acetic acid], the “induction of GNT35 expression (in words)” value [2] is listed as “rapidly induced”, the “induction of EH-1 expression (in words)” value (EH-1 gene [3]) is listed as “Little or no induction” and the “induction of Arabidopsis sEH gene” value (Arabidopsis sEH gene) is listed as “induced by auxins”.

In the case of O=C(O)CCCCCCCC(O)C(O)CCCCCCCCO (stereo not shown) [9,10,18-trihydroxystearic acid], the alkalinization of media (potato suspension cells) is given as “to a lesser extent than HESA”, the “effectiveness at protecting / inducing resistance to fungal infection in barley” value (fungal pathogen) is given as “nearly as effective” and the “toxicity relative to HESA” value (fungal pathogen; in vivo) is given as “less toxic than HESA”.

In the case of O=C(O)c1cc(Cl)nc(Cl)c1 [INA, 2,6-dichloroisonicotinic acid], the “induction of PAL gene expression (in words)” value (PAL genes) is reported as “neither SA nor INA can induce PAL gene expression”, the “induction of PR-1 genes (in words)” value (PR-1 genes) is reported as “slow and sustained” and the “EH-1 transcript accumulation (in words)” value (EH-1 gene [4]) is reported as “induced a transient accumulation of EH-1 transcripts; also recorded: accumulate rapidly and transiently”. The “activation” value [1] was “induced by INA, generally in a transient manner; also recorded: rapid and transient activation of six of the seven groups”.

For O=C(O)c1ccc(O)cc1 [4HBA, 4-hydroxybenzoic acid], the “activation” value [1] was “failed to activate these genes”.

In the case of O=C(O)CCCCCCCC1OC1CCCCCCCCO (stereo not drawn) [HESA, cis-9,10-epoxy-18-hydroxystearic acid], the alkalinization of media (potato suspension cells) is given as “caused the rapid alkalinization” and the “effectiveness at protecting / inducing resistance to fungal infection in barley” value (fungal pathogen) is given as “most effective”.
